Measured values reported in ChEMBL document CHEMBL4346748, “Growth inhibition by 1-deoxy-d-allulose, a novel bioactive deoxy sugar, screened using Caenorhabditis elegans assay” (Bioorg Med Chem Lett, 2019).
Active and inactive are the calls of the source. The calls are words filed in the database; no cut-off is given here.

What was measured:
Caenorhabditis elegans [1] = assay: Growth inhibition of Caenorhabditis elegans N2 assessed as reduction in body size incubated for 72 hrs by microscopic method; format: functional; settings: for GI50: N2, 72 h
Caenorhabditis elegans [2] = assay: Growth inhibition of Caenorhabditis elegans N2 assessed as body size at 42 mM incubated for 72 hrs by microscopic method relative to control; format: functional
Caenorhabditis elegans [3] = assay: Growth inhibition of Caenorhabditis elegans N2 assessed as reduction in motility at 42 mM incubated for 72 hrs by microscopic method; format: functional, organism-based
[4] = Toxicity in Caenorhabditis elegans N2 assessed as mortality at 42 mM incubated for 72 hrs by microscopic method; settings: 42000 µM
Caenorhabditis elegans [5] = assay: Growth inhibition of Caenorhabditis elegans N2 assessed as reduction in body size at 9.5 mM incubated for 72 hrs in presence of D-fructose by microscopic method; format: functional, organism-based
Caenorhabditis elegans [6] = assay: Growth inhibition of Caenorhabditis elegans N2 assessed as effect on body size at 42 mM incubated for 72 hrs by microscopic method; format: functional, organism-based
Caenorhabditis elegans [7] = assay: Growth inhibition of Caenorhabditis elegans N2 assessed as effect on body shape at 42 mM incubated for 72 hrs by microscopic method; format: functional, organism-based
Caenorhabditis elegans [8] = assay: Growth inhibition of Caenorhabditis elegans N2 assessed as reduction in body size at 9.5 mM incubated for 72 hrs in presence of D-ribose by microscopic method; format: functional, organism-based
Caenorhabditis elegans [9] = assay: Ratio of GI50 for D-Alu to GI50 for test compound for growth inhibition of Caenorhabditis elegans N2 assessed as reduction in body size incubated for 72 hrs by microscopic method; format: functional
Caenorhabditis elegans [10] = assay: Growth inhibition of Caenorhabditis elegans N2 assessed as reduction in body size at 9.5 mM incubated for 72 hrs in presence of up to 67 mM D-glucose by microscopic method; format: functional, organism-based

## O=C(CO)[C@H](O)[C@H](O)[C@H](O)CO
Caenorhabditis elegans [1]
  GI50: 52.7 mM

## CC(=O)[C@@H](O)[C@@H](O)[C@H](O)CO
Caenorhabditis elegans [2]
  growth inhibition (GI): inactive

## CC(=O)[C@@H](O)[C@H](O)[C@@H](O)CO
Caenorhabditis elegans [2]
  growth inhibition (GI): inactive

## CC(=O)[C@@H](O)[C@@H](O)[C@@H](O)CO
Caenorhabditis elegans [2]
  growth inhibition (GI): inactive

## CC(=O)[C@H](O)[C@@H](O)[C@H](O)CO
Caenorhabditis elegans [2]
  growth inhibition (GI): inactive

## CC(=O)[C@H](O)[C@H](O)[C@@H](O)CO
Caenorhabditis elegans [2]
  growth inhibition (GI): inactive

## O=C(CO)[C@H](O)[C@H](O)CCO
Caenorhabditis elegans [2]
  growth inhibition (GI): inactive

## C[C@@H](O)[C@@H](O)[C@@H](O)C(=O)CO
Caenorhabditis elegans [2]
  growth inhibition (GI): inactive

## CC(=O)[C@H](O)[C@H](O)[C@H](O)CO
Caenorhabditis elegans [3]
  growth inhibition (GI): Active
[4]
  Activity: Non-Toxic
Caenorhabditis elegans [1]
  growth inhibition (GI): Dose-dependent effect
  GI50: 5.4 mM
Caenorhabditis elegans [5]
  growth inhibition (GI): inactive
Caenorhabditis elegans [6]
  growth inhibition (GI): Active
Caenorhabditis elegans [7]
  growth inhibition (GI): Active
Caenorhabditis elegans [8]
  growth inhibition (GI): inactive
Caenorhabditis elegans [2]
  Activity: 5.7%
Caenorhabditis elegans [9]
  RatioGI50: 10
Caenorhabditis elegans [10]
  growth inhibition (GI): Active

## CC(=O)[C@H](O)[C@@H](O)[C@@H](O)CO
Caenorhabditis elegans [2]
  growth inhibition (GI): inactive

## CC(=O)[C@@H](O)[C@H](O)[C@H](O)CO
Caenorhabditis elegans [2]
  growth inhibition (GI): inactive
